Measured values: ChEMBL document CHEMBL3045486, “Potent, Selective Adenosine A1 Agonists as Potential Analgesics” (Med Chem Res, 2004)

Experiments:
[1] = target: T1, Adenosine receptor A1 (Homo sapiens) (UniProt P30542); experiment: Intrinsic efficacy at Homo sapiens (human) adenosine A1 receptor expressed in CHO cells assessed as increase in intracellular calcium level by FLIPR assay relative to NECA; type: functional, cell-based
T1 sequence (whole entry): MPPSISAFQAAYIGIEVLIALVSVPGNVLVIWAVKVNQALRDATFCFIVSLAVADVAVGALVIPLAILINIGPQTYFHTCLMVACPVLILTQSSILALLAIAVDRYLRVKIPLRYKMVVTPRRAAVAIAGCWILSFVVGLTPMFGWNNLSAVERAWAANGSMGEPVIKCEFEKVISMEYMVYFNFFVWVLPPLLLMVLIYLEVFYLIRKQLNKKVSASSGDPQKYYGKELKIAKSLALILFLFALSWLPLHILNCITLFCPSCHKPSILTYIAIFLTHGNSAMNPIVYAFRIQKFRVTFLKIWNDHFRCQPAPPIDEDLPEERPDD

Adenosine receptor A2a [2] = target: T2, Adenosine receptor A2a (Homo sapiens, UniProt P29274); experiment: Agonist activity at Homo sapiens (human) adenosine A2a receptor expressed in CHO cells; type: functional, cell-based
T2 sequence (P29274 whole entry): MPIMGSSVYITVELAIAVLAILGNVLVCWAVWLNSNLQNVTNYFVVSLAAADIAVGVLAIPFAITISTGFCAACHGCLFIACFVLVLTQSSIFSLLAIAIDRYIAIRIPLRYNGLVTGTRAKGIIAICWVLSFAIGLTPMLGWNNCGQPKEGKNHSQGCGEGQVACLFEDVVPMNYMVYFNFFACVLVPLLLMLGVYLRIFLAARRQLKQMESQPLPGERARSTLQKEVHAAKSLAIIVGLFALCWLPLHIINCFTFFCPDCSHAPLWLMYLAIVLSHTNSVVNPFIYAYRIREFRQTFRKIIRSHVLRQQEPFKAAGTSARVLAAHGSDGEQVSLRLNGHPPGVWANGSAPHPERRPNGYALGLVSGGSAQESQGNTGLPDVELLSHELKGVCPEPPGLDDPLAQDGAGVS

[3] = target: T3, Adenosine receptor A3 (Homo sapiens) (UniProt P0DMS8); experiment: Agonist activity at Homo sapiens (human) adenosine A3 receptor expressed in CHO cells relative to NECA; type: cell-based
T3 sequence (whole entry): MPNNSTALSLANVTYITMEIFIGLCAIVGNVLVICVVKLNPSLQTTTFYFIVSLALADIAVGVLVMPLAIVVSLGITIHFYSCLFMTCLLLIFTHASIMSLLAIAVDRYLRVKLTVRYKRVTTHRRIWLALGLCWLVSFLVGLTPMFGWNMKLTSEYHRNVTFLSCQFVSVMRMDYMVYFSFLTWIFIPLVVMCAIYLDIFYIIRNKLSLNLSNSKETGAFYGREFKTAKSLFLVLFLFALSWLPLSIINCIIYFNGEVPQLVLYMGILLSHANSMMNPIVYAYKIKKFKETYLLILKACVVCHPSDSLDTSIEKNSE

Adenosine receptor A1 = target: T4, Adenosine receptor A1 (Homo sapiens, UniProt P30542); experiment: Agonist activity at Homo sapiens (human) adenosine A1 receptor expressed in CHO cells; type: cell-based
T4 sequence (P30542 whole entry): T1 sequence (whole entry)

[4] = target: T1, Adenosine receptor A1 (Homo sapiens); experiment: Agonist activity at Homo sapiens (human) adenosine A1 receptor expressed in CHO cells relative to NECA; type: cell-based
Adenosine receptor A3 = target: T5, Adenosine receptor A3 (Homo sapiens, UniProt P0DMS8); experiment: Agonist activity at Homo sapiens (human) adenosine A3 receptor expressed in CHO cells; type: cell-based
T5 sequence (P0DMS8 whole entry): T3 sequence (whole entry)

Adenosine receptor A2b = target: T6, Adenosine receptor A2b (Homo sapiens, UniProt P29275); experiment: Agonist activity at Homo sapiens (human) adenosine A2b receptor expressed in CHO cells; type: cell-based
T6 sequence (P29275 whole entry): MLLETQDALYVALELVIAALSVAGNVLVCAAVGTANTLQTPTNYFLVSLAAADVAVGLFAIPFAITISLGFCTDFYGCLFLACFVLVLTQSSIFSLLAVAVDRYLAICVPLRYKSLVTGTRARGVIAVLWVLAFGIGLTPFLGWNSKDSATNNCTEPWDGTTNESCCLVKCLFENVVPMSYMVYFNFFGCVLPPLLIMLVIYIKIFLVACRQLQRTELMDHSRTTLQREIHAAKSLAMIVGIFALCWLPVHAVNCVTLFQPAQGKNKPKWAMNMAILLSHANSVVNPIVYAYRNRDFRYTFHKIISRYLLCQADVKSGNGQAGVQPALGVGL

Adenosine receptor A2a [5] = target: T2, Adenosine receptor A2a; experiment: Agonist activity at Homo sapiens (human) adenosine A2a receptor expressed in CHO cells relative to NECA; type: cell-based
[6] = target: T7, Adenosine receptor A2b (Homo sapiens) (UniProt P29275); experiment: Agonist activity at Homo sapiens (human) adenosine A2b receptor expressed in CHO cells relative to NECA; type: cell-based
T7 sequence (whole entry): T6 sequence (P29275 whole entry)

Efficacy [1] | Ki (Adenosine receptor A2a [2]) | Ratio [3] | Ki (Adenosine receptor A1) | Ratio [4] | Ki (Adenosine receptor A3) | Ki (Adenosine receptor A2b) | Ratio (Adenosine receptor A2a [5]) | Ratio [6] | Structure (SMILES)
84% | 5010 nM | > 251 | 25.1 nM | 2.4 | 2510 nM | > 100000 nM | 212 | > 273 | O[C@@H]1[C@H](O)[C@@H](CF)O[C@H]1n1cnc2c(NC3CCOCC3)ncnc21
106% | 25100 nM | > 190 | 15.8 nM | 1.9 | 2510 nM | 31600 nM | 445 | 195 | OC[C@H]1O[C@@H](n2cnc3c(N[C@H]4CCC[C@@H]4O)ncnc32)[C@H](O)[C@@H]1O [GR-79236]
12% | > 100000 nM | > 364 | 251 nM | 12 | 3160 nM | – | 725 | > 348 | COC[C@H]1O[C@@H](n2cnc3c(Nc4ccc(O)c(F)c4)ncnc32)[C@H](O)[C@@H]1O [GR-190178]
